Results on 4 molecules are retold here after PubChem BioAssay AID2060508 (Molecular Pharmacology Branch, DTP, NCI, 2025).
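Note: spheroids exposed to compounds for seven days; 100% = DMSO vehicle control viability.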

For one test, the system named is 454973-116-R2-J3-PDC spheroids, viability, % test/control. The experiment in a line: Anticancer human tumor 454973-116-R2-J3-PDC patient-derived pancreatic carcinoma cell line growth inhibition [GQUAD]. The settings on record: second compound 0.316 µM; first compound 1 µM; hits give low values; spheroids with HUVEC and MSC. In short, it runs like this: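 Tumor cells were grown as complex spheroids with HUVEC endothelial cells and mesenchymal stem cells as stroma. G-quadruplex stabilizers were combined with targeted agents over half-log dilutions from near the clinical Cmax, or from 10 microM.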
On to `CC(C)n1c(=O)n(C)c2cnc3cc(F)c(-c4ccc(OCCCN5CCCCC5)nc4)cc3c21` + CN(C)c1ccc(Nc2c3ccc(NC(=O)CCN4CCCC4)cc3nc3cc(NC(=O)CCN4CCCC4)ccc23)cc1, for which the viability, T/C (in general, the ratio of treated to control) was 89.1%.
As to `CC1COCCN1c1cc(-c2ccnn2C)c2ccnc(-c3ccn[nH]3)c2n1` (configuration not stated) + CN(C)c1ccc(Nc2c3ccc(NC(=O)CCN4CCCC4)cc3nc3cc(NC(=O)CCN4CCCC4)ccc23)cc1, the viability, T/C is 21.3%.
For the molecule `CC1COCCN1c1cc(C2(O)CC3CCC(C2)O3)c2cnn(-c3ccn[nH]3)c2n1` (configuration not stated) + CN(C)c1ccc(Nc2c3ccc(NC(=O)CCN4CCCC4)cc3nc3cc(NC(=O)CCN4CCCC4)ccc23)cc1, the viability, T/C was 21%.
As to `COc1ccc([C@@H](O)c2cc(-c3ncnc4cc(N5CCOCC5)ccc34)c(F)cc2Cl)nn1` + CN(C)c1ccc(Nc2c3ccc(NC(=O)CCN4CCCC4)cc3nc3cc(NC(=O)CCN4CCCC4)ccc23)cc1, the viability, T/C was 76.1%.

Still in this test, the particulars now being: second compound 0.316 µM; first compound 3.16 µM; hits give low values; spheroids with HUVEC and MSC.
With `CC(C)n1c(=O)n(C)c2cnc3cc(F)c(-c4ccc(OCCCN5CCCCC5)nc4)cc3c21` + CN(C)c1ccc(Nc2c3ccc(NC(=O)CCN4CCCC4)cc3nc3cc(NC(=O)CCN4CCCC4)ccc23)cc1, the viability, T/C was 75.1%.
The same measure, in the same setting: for `CC1COCCN1c1cc(-c2ccnn2C)c2ccnc(-c3ccn[nH]3)c2n1` (configuration not stated) + CN(C)c1ccc(Nc2c3ccc(NC(=O)CCN4CCCC4)cc3nc3cc(NC(=O)CCN4CCCC4)ccc23)cc1 the value was 21.7%; for `CC1COCCN1c1cc(C2(O)CC3CCC(C2)O3)c2cnn(-c3ccn[nH]3)c2n1` (configuration not stated) + CN(C)c1ccc(Nc2c3ccc(NC(=O)CCN4CCCC4)cc3nc3cc(NC(=O)CCN4CCCC4)ccc23)cc1, 23%.
In the case of `COc1ccc([C@@H](O)c2cc(-c3ncnc4cc(N5CCOCC5)ccc34)c(F)cc2Cl)nn1` + CN(C)c1ccc(Nc2c3ccc(NC(=O)CCN4CCCC4)cc3nc3cc(NC(=O)CCN4CCCC4)ccc23)cc1, the viability, T/C was 66.5%.

The same test, now with this note: second compound 0.316 µM; first compound 10 µM; hits give low values; spheroids with HUVEC and MSC.
As for `CC(C)n1c(=O)n(C)c2cnc3cc(F)c(-c4ccc(OCCCN5CCCCC5)nc4)cc3c21` + CN(C)c1ccc(Nc2c3ccc(NC(=O)CCN4CCCC4)cc3nc3cc(NC(=O)CCN4CCCC4)ccc23)cc1, the viability, T/C is 73.8%.
Same read-out and setting: then `CC1COCCN1c1cc(-c2ccnn2C)c2ccnc(-c3ccn[nH]3)c2n1` (configuration not stated) + CN(C)c1ccc(Nc2c3ccc(NC(=O)CCN4CCCC4)cc3nc3cc(NC(=O)CCN4CCCC4)ccc23)cc1, with 29.4%.
The same measure, in the same setting: for `CC1COCCN1c1cc(C2(O)CC3CCC(C2)O3)c2cnn(-c3ccn[nH]3)c2n1` (configuration not stated) + CN(C)c1ccc(Nc2c3ccc(NC(=O)CCN4CCCC4)cc3nc3cc(NC(=O)CCN4CCCC4)ccc23)cc1 the value was 13.1%; for `COc1ccc([C@@H](O)c2cc(-c3ncnc4cc(N5CCOCC5)ccc34)c(F)cc2Cl)nn1` + CN(C)c1ccc(Nc2c3ccc(NC(=O)CCN4CCCC4)cc3nc3cc(NC(=O)CCN4CCCC4)ccc23)cc1, 48.5%.

The same test, now with this note: second compound 1 µM; first compound 0.0316 µM; hits give low values; spheroids with HUVEC and MSC.
As to `CC(C)n1c(=O)n(C)c2cnc3cc(F)c(-c4ccc(OCCCN5CCCCC5)nc4)cc3c21` + CN(C)c1ccc(Nc2c3ccc(NC(=O)CCN4CCCC4)cc3nc3cc(NC(=O)CCN4CCCC4)ccc23)cc1, the viability, T/C was 99.6%.
For the molecule `CC1COCCN1c1cc(-c2ccnn2C)c2ccnc(-c3ccn[nH]3)c2n1` (configuration not stated) + CN(C)c1ccc(Nc2c3ccc(NC(=O)CCN4CCCC4)cc3nc3cc(NC(=O)CCN4CCCC4)ccc23)cc1, the viability, T/C was 91.3%.
On to `CC1COCCN1c1cc(C2(O)CC3CCC(C2)O3)c2cnn(-c3ccn[nH]3)c2n1` (configuration not stated) + CN(C)c1ccc(Nc2c3ccc(NC(=O)CCN4CCCC4)cc3nc3cc(NC(=O)CCN4CCCC4)ccc23)cc1, for which the viability, T/C was 95.3%.
As to `COc1ccc([C@@H](O)c2cc(-c3ncnc4cc(N5CCOCC5)ccc34)c(F)cc2Cl)nn1` + CN(C)c1ccc(Nc2c3ccc(NC(=O)CCN4CCCC4)cc3nc3cc(NC(=O)CCN4CCCC4)ccc23)cc1, the viability, T/C was 89.5%.

Staying with this test, now noted: second compound 1 µM; first compound 0.1 µM; hits give low values; spheroids with HUVEC and MSC.
For `CC(C)n1c(=O)n(C)c2cnc3cc(F)c(-c4ccc(OCCCN5CCCCC5)nc4)cc3c21` + CN(C)c1ccc(Nc2c3ccc(NC(=O)CCN4CCCC4)cc3nc3cc(NC(=O)CCN4CCCC4)ccc23)cc1, the viability, T/C was 99.3%.
The same measure, in the same setting: then `CC1COCCN1c1cc(-c2ccnn2C)c2ccnc(-c3ccn[nH]3)c2n1` (configuration not stated) + CN(C)c1ccc(Nc2c3ccc(NC(=O)CCN4CCCC4)cc3nc3cc(NC(=O)CCN4CCCC4)ccc23)cc1, with 63.1%; and `CC1COCCN1c1cc(C2(O)CC3CCC(C2)O3)c2cnn(-c3ccn[nH]3)c2n1` (configuration not stated) + CN(C)c1ccc(Nc2c3ccc(NC(=O)CCN4CCCC4)cc3nc3cc(NC(=O)CCN4CCCC4)ccc23)cc1, with 58.4%; and `COc1ccc([C@@H](O)c2cc(-c3ncnc4cc(N5CCOCC5)ccc34)c(F)cc2Cl)nn1` + CN(C)c1ccc(Nc2c3ccc(NC(=O)CCN4CCCC4)cc3nc3cc(NC(=O)CCN4CCCC4)ccc23)cc1, with 86.3%.

Staying with this test, now noted: second compound 1 µM; first compound 0.316 µM; hits give low values; spheroids with HUVEC and MSC.
In the case of `CC(C)n1c(=O)n(C)c2cnc3cc(F)c(-c4ccc(OCCCN5CCCCC5)nc4)cc3c21` + CN(C)c1ccc(Nc2c3ccc(NC(=O)CCN4CCCC4)cc3nc3cc(NC(=O)CCN4CCCC4)ccc23)cc1, the viability, T/C was 91.7%.
The same measure, in the same setting: then `CC1COCCN1c1cc(-c2ccnn2C)c2ccnc(-c3ccn[nH]3)c2n1` (configuration not stated) + CN(C)c1ccc(Nc2c3ccc(NC(=O)CCN4CCCC4)cc3nc3cc(NC(=O)CCN4CCCC4)ccc23)cc1, with 36.2%; and `CC1COCCN1c1cc(C2(O)CC3CCC(C2)O3)c2cnn(-c3ccn[nH]3)c2n1` (configuration not stated) + CN(C)c1ccc(Nc2c3ccc(NC(=O)CCN4CCCC4)cc3nc3cc(NC(=O)CCN4CCCC4)ccc23)cc1, with 33.1%; and `COc1ccc([C@@H](O)c2cc(-c3ncnc4cc(N5CCOCC5)ccc34)c(F)cc2Cl)nn1` + CN(C)c1ccc(Nc2c3ccc(NC(=O)CCN4CCCC4)cc3nc3cc(NC(=O)CCN4CCCC4)ccc23)cc1, with 88.2%.

The test is the same for the next values; noted with them: second compound 1 µM; first compound 1 µM; hits give low values; spheroids with HUVEC and MSC.
For `CC(C)n1c(=O)n(C)c2cnc3cc(F)c(-c4ccc(OCCCN5CCCCC5)nc4)cc3c21` + CN(C)c1ccc(Nc2c3ccc(NC(=O)CCN4CCCC4)cc3nc3cc(NC(=O)CCN4CCCC4)ccc23)cc1, the viability, T/C was 66.3%.
Still for that read-out and setting: for `CC1COCCN1c1cc(-c2ccnn2C)c2ccnc(-c3ccn[nH]3)c2n1` (configuration not stated) + CN(C)c1ccc(Nc2c3ccc(NC(=O)CCN4CCCC4)cc3nc3cc(NC(=O)CCN4CCCC4)ccc23)cc1 the value was 20.8%; for `CC1COCCN1c1cc(C2(O)CC3CCC(C2)O3)c2cnn(-c3ccn[nH]3)c2n1` (configuration not stated) + CN(C)c1ccc(Nc2c3ccc(NC(=O)CCN4CCCC4)cc3nc3cc(NC(=O)CCN4CCCC4)ccc23)cc1, 19.5%; for `COc1ccc([C@@H](O)c2cc(-c3ncnc4cc(N5CCOCC5)ccc34)c(F)cc2Cl)nn1` + CN(C)c1ccc(Nc2c3ccc(NC(=O)CCN4CCCC4)cc3nc3cc(NC(=O)CCN4CCCC4)ccc23)cc1, 76.6%.

The test is the same for the next values; noted with them: second compound 1 µM; first compound 3.16 µM; hits give low values; spheroids with HUVEC and MSC.
Turning to `CC(C)n1c(=O)n(C)c2cnc3cc(F)c(-c4ccc(OCCCN5CCCCC5)nc4)cc3c21` + CN(C)c1ccc(Nc2c3ccc(NC(=O)CCN4CCCC4)cc3nc3cc(NC(=O)CCN4CCCC4)ccc23)cc1, the viability, T/C is 81.8%.
In the case of `CC1COCCN1c1cc(-c2ccnn2C)c2ccnc(-c3ccn[nH]3)c2n1` (configuration not stated) + CN(C)c1ccc(Nc2c3ccc(NC(=O)CCN4CCCC4)cc3nc3cc(NC(=O)CCN4CCCC4)ccc23)cc1, the viability, T/C is 22.6%.
The same measure, in the same setting: then `CC1COCCN1c1cc(C2(O)CC3CCC(C2)O3)c2cnn(-c3ccn[nH]3)c2n1` (configuration not stated) + CN(C)c1ccc(Nc2c3ccc(NC(=O)CCN4CCCC4)cc3nc3cc(NC(=O)CCN4CCCC4)ccc23)cc1, with 20.1%; and `COc1ccc([C@@H](O)c2cc(-c3ncnc4cc(N5CCOCC5)ccc34)c(F)cc2Cl)nn1` + CN(C)c1ccc(Nc2c3ccc(NC(=O)CCN4CCCC4)cc3nc3cc(NC(=O)CCN4CCCC4)ccc23)cc1, with 59.4%.

Staying with this test, now noted: second compound 1 µM; first compound 10 µM; hits give low values; spheroids with HUVEC and MSC.
As for `CC(C)n1c(=O)n(C)c2cnc3cc(F)c(-c4ccc(OCCCN5CCCCC5)nc4)cc3c21` + CN(C)c1ccc(Nc2c3ccc(NC(=O)CCN4CCCC4)cc3nc3cc(NC(=O)CCN4CCCC4)ccc23)cc1, the viability, T/C is 65.3%.
With `CC1COCCN1c1cc(-c2ccnn2C)c2ccnc(-c3ccn[nH]3)c2n1` (configuration not stated) + CN(C)c1ccc(Nc2c3ccc(NC(=O)CCN4CCCC4)cc3nc3cc(NC(=O)CCN4CCCC4)ccc23)cc1, the viability, T/C is 27.5%.
On the same count and under the same terms, for `CC1COCCN1c1cc(C2(O)CC3CCC(C2)O3)c2cnn(-c3ccn[nH]3)c2n1` (configuration not stated) + CN(C)c1ccc(Nc2c3ccc(NC(=O)CCN4CCCC4)cc3nc3cc(NC(=O)CCN4CCCC4)ccc23)cc1 the value was 15.5%; for `COc1ccc([C@@H](O)c2cc(-c3ncnc4cc(N5CCOCC5)ccc34)c(F)cc2Cl)nn1` + CN(C)c1ccc(Nc2c3ccc(NC(=O)CCN4CCCC4)cc3nc3cc(NC(=O)CCN4CCCC4)ccc23)cc1, 44.7%.

Still in this test, the particulars now being: second compound 3.16 µM; first compound 0.0316 µM; hits give low values; spheroids with HUVEC and MSC.
Consider `CC(C)n1c(=O)n(C)c2cnc3cc(F)c(-c4ccc(OCCCN5CCCCC5)nc4)cc3c21` + CN(C)c1ccc(Nc2c3ccc(NC(=O)CCN4CCCC4)cc3nc3cc(NC(=O)CCN4CCCC4)ccc23)cc1, for which the viability, T/C is 85.7%.
`CC1COCCN1c1cc(-c2ccnn2C)c2ccnc(-c3ccn[nH]3)c2n1` (configuration not stated) + CN(C)c1ccc(Nc2c3ccc(NC(=O)CCN4CCCC4)cc3nc3cc(NC(=O)CCN4CCCC4)ccc23)cc1: the viability, T/C was 87%.
On the same count and under the same terms, for `CC1COCCN1c1cc(C2(O)CC3CCC(C2)O3)c2cnn(-c3ccn[nH]3)c2n1` (configuration not stated) + CN(C)c1ccc(Nc2c3ccc(NC(=O)CCN4CCCC4)cc3nc3cc(NC(=O)CCN4CCCC4)ccc23)cc1 the value was 84%.
Same read-out and setting: for `COc1ccc([C@@H](O)c2cc(-c3ncnc4cc(N5CCOCC5)ccc34)c(F)cc2Cl)nn1` + CN(C)c1ccc(Nc2c3ccc(NC(=O)CCN4CCCC4)cc3nc3cc(NC(=O)CCN4CCCC4)ccc23)cc1 the value was 86.1%.

Staying with this test, now noted: second compound 3.16 µM; first compound 0.1 µM; hits give low values; spheroids with HUVEC and MSC.
As for `CC(C)n1c(=O)n(C)c2cnc3cc(F)c(-c4ccc(OCCCN5CCCCC5)nc4)cc3c21` + CN(C)c1ccc(Nc2c3ccc(NC(=O)CCN4CCCC4)cc3nc3cc(NC(=O)CCN4CCCC4)ccc23)cc1, the viability, T/C was 91.7%.
Still for that read-out and setting: then `CC1COCCN1c1cc(-c2ccnn2C)c2ccnc(-c3ccn[nH]3)c2n1` (configuration not stated) + CN(C)c1ccc(Nc2c3ccc(NC(=O)CCN4CCCC4)cc3nc3cc(NC(=O)CCN4CCCC4)ccc23)cc1, with 55.5%.
